The values that follow come from patent US20110245284A1, “Alkoxy- and Alkylthio-Substituted Anilinopyrimidines” (Bayer CropScience AG, priority 2008, published 2011).

In data set [1] the test system is Rhizoctonia solani. Description: Rhizoctonia test (rice) / protective. The conditions noted are these: 96 h, active compound concentration 250 ppm, evaluation 4 days after inoculation, read-out: efficacy. The class given is in vivo.
The subject of data set [2] is Leptosphaeria nodorum. The data set is described as follows: Leptosphaeria nodorum test (wheat) / protective. The class given is in vivo. Particulars: Parastagonospora nodorum, active compound concentration 500 ppm, evaluation 7-9 days after inoculation, read-out: efficacy. The procedure:
Thereafter, the plants are placed in a greenhouse at 90% relative atmospheric humidity and a temperature of 22° C.

Data set [3] in a line: logP by LC-MS on reversed-phase columns (C 18), method [b], acidic range pH 2.7. The class given is physicochemical. The conditions noted are these: pH 2.7, log p. The protocol: (§1) The logP values were determined in accordance with EEC Directive 79/831 Annex V.A8 by HPLC (High Performance Liquid Chromatography) on reversed-phase columns (C 18), using the methods below:
[b] The LC-MS determination in the acidic range is carried out at pH 2.7 using the mobile phases 0.1% aqueous formic acid and acetonitrile (contains 0.1% formic acid), linear gradient from 10% acetonitrile to 95% acetonitrile.

Data set [4] relates to Pyricularia oryzae. Description: whole plant or invertebrate. The class given is in vivo. Particulars: 120 h, read-out: efficacy.
Data set [5] relates to Sphaerotheca fuliginea. The data set is described as follows: Sphaerotheca test (cucumber) / protective. The class given is in vivo. Particulars: Podosphaera fuliginea, 168 h, active compound concentration 500 ppm, evaluation 7 days after inoculation, read-out: efficacy. The protocol:
The plants are subsequently placed in a greenhouse at 70% relative atmospheric humidity and a temperature of 23° C.

Data set [6] in a line: logP by HPLC on reversed-phase columns (C 18), method [a], acidic range pH 2.3. The class given is physicochemical. The protocol:
as §1
[a] The determination is carried out in the acidic range at pH 2.3 using the mobile phases 0.1% aqueous phosphoric acid and acetonitrile, linear gradient from 10% acetonitrile to 95% acetonitrile.

Data set [7] relates to Alternaria solani. The data set is described as follows: Alternaria test (tomato) / protective. The class given is in vivo. Particulars: 72 h, active compound concentration 100 ppm, evaluation 3 days after inoculation, read-out: efficacy. The procedure:
The plants are then placed in an incubation cabinet at about 20° C. and 100% relative atmospheric humidity.

The test system of data set [8] is Venturia inaequalis. The data set is described as follows: Venturia test (apple) / protective. It counts as in vivo. Particulars: 240 h, active compound concentration 100 ppm, evaluation 10 days after inoculation, read-out: efficacy. The protocol:
After the spray coating has dried on, the plants are inoculated with an aqueous conidia suspension of the apple scab pathogen Venturia inaequalis and then remain for 1 day in an incubation cabinet at about 20° C. and 100% relative atmospheric humidity.

Data set [9] in a line: logP by LC-MS on reversed-phase columns (C 18), method [c], neutral range pH 7.8. Particulars: pH 7.8. It counts as physicochemical. The procedure:
as §1
[c] The LC-MS determination in the neutral range is carried out at pH 7.8 using the mobile phases 0.001 molar aqueous ammonium bicarbonate solution and acetonitrile, linear gradient from 10% acetonitrile to 95% acetonitrile.

For data set [10], the system named is Pyrenophora teres. The data set is described as follows: Pyrenophora teres test (barley) / protective. It counts as in vivo. The conditions noted are these: 192 h, active compound concentration 500 ppm, evaluation 8 days after inoculation, read-out: efficacy. The protocol: After the spray coating has dried on, the plants are sprayed with a spore suspension of Pyrenophora teres. The plants remain in an incubation cabinet for 48 hours at 20° C. and 100% relative atmospheric humidity.

In the case of `CCC(C)Sc1cccc(Nc2ncc(Cl)c(NC3CCC3)n2)c1` (stereo not drawn) [Example 6], the pest or weed control at 250 ppm in data set [1] and in data set [4] was not below 80% each time. In addition, the pest or weed control at 500 ppm in data set [2] was not below 70%. The compound further displayed a chromatographic logP in data set [3] of 4.14.
On to `CCCSc1cccc(Nc2ncc(Cl)c(NC(C)C)n2)c1` [Example 31, 5-Chloro-N^4-(propan-2-yl)-N^2-[3-(propylsulphanyl)phenyl]pyrimidine-2,4-diamine], for which the pest or weed control at 250 ppm in data set [1] is not below 80%. The pest or weed control at 500 ppm in [2] and in data set [5] was not below 70% throughout. The chromatographic logP was determined as 3.3 in data set [3] and 3.27 in [6] (pH 2.3, logP (pH2.3)).
`CCCS(=O)(=O)c1cccc(Nc2ncc(C(F)(F)F)c(NC3CCC3)n2)c1` [Example 34, N^4-Cyclobutyl-N^2-[3-(propylsulphonyl)phenyl]-5-(trifluoromethyl)pyrimidine-2,4-diamine]: the pest or weed control at 250 ppm in [1] was not below 80%. In addition, the pest or weed control at 500 ppm in data set [2] and in data set [5] was not below 70% throughout. The chromatographic logP in [3] stood at 3.46; in [6] (pH 2.3, logP (pH2.3)), 3.46.
`CCC[S+]([O-])c1cccc(Nc2ncc(C(F)(F)F)c(NC3CCC3)n2)c1` (stereo not drawn) [Example 35]: the pest or weed control at 500 ppm in data set [2] and in data set [5] was not below 70% each time. The same compound gave a chromatographic logP in data set [3] of 2.97. Besides, the pest or weed control at 100 ppm in data set [7] and in data set [8] was not below 70% each time.
Regarding `CCCSc1cccc(Nc2ncc(Cl)c(NC3CC3C)n2)c1` (stereo not drawn) [Example 63], in data set [2], the pest or weed control at 500 ppm is not below 70%. This compound also returned a chromatographic logP in [3] of 3.58. The pest or weed control at 100 ppm in [7] and in data set [8] was not below 70% each time.
For `COCc1cccc(Nc2ncc(Cl)c(NC3CC3C)n2)c1` (stereo not drawn) [Example 65], the pest or weed control at 500 ppm in data set [2] is not below 70%. Besides, the chromatographic logP in data set [9] was 3.3; in data set [3] it was 2.03. Also, the pest or weed control at 100 ppm in data set [7] and in data set [8] was not below 70% in each case.
On to `CCOCCOc1cc(Nc2ncc(C(F)(F)F)c(NC3CC3)n2)ccc1C` [Example 79], for which the pest or weed control at 250 ppm in [1] and in data set [4] was not below 80% throughout. The pest or weed control at 500 ppm in [2] and in [5] was not below 70% in each case. In addition, the chromatographic logP in [9] was 4.15; in data set [3], 3.66.
As for `CCCS(=O)(=O)c1ccc(Nc2ncc(Cl)c(NC3CC3)n2)cc1` [Example 97], the pest or weed control at 500 ppm in data set [10] and in data set [2] was not below 70% throughout. The values for the chromatographic logP in data set [9] and in data set [3] were 2.76 and 2.42, respectively. Besides, in data set [4], the pest or weed control at 250 ppm is not below 80%.
As to `CCC[S+]([O-])c1ccc(Nc2ncc(Cl)c(NC3CC3)n2)cc1` (stereo not drawn) [Example 98], the pest or weed control at 500 ppm in [10], in data set [2] and in data set [5] was not below 70% each time. Also, the chromatographic logP in data set [3] amounted to 1.78. In [4], the pest or weed control at 250 ppm is not below 80%.
Turning to `CCS(=O)(=O)c1cccc(Nc2ncc(Br)c(NC3CCC3)n2)c1` [Example 111], the pest or weed control at 500 ppm in data set [2] and in [5] was not below 70% each time. In addition, the chromatographic logP in data set [9] amounted to 3.06; in data set [3], 2.36. For the same compound, the pest or weed control at 100 ppm in [7] and in [8] was not below 70% each time.
Turning to `CC[S+]([O-])c1cccc(Nc2ncc(Br)c(NC3CCC3)n2)c1` (stereo not drawn) [Example 112], the pest or weed control at 500 ppm in [10], in data set [2] and in [5] was not below 70% throughout. The chromatographic logP in data set [9] was 2.63; in data set [3], 1.88.
Take `CC[S+]([O-])c1cccc(Nc2ncc(Cl)c(NC3CC3)n2)c1` (stereo not drawn) [Example 114]: the pest or weed control at 500 ppm in data set [10], in data set [2] and in data set [5] was not below 70% in each case. The chromatographic logP in data set [9] stood at 2.11; in [3], 1.48; in [6] (pH 2.3, log p), 1.49.
With `CCCC[S+]([O-])c1cccc(Nc2ncc(Cl)c(NC3CC3)n2)c1` (stereo not drawn) [Example 124], the pest or weed control at 500 ppm in data set [10], in [2] and in data set [5] was not below 70% each time. The chromatographic logP in [9] came to 2.71; in [3] it was 2.13.
For the compound `CCCCS(=O)(=O)c1cccc(Nc2ncc(Br)c(NC3CC3)n2)c1` [Example 125], the pest or weed control at 500 ppm in data set [2] was not below 70%. Besides, the figures for the chromatographic logP in data set [9] and in [3] were 3.32 and 2.81, respectively. Besides, the pest or weed control at 100 ppm in data set [7] and in data set [8] was not below 70% throughout.
Take `CCSC(C)c1cccc(Nc2ncc(Cl)c(NC(C)C)n2)c1` (stereo not drawn) [Example 131]: the pest or weed control at 500 ppm in data set [10], in data set [2] and in data set [5] was not below 70% each time. Moreover, the chromatographic logP was 4.65 in [9] and 2.91 in data set [3].
`CCC(C)SC(C)c1cccc(Nc2ncc(C(F)(F)F)c(NC3CC3)n2)c1` (stereo not drawn) [Example 132]: the pest or weed control at 500 ppm in data set [10], in data set [2] and in data set [5] was not below 70% each time. The chromatographic logP in data set [9] was found to be 5.38; in data set [3], 5.09.
For the compound `CCCCS(=O)(=O)c1cccc(Nc2ncc(Br)c(NC3CCC3)n2)c1` [Example 151], the pest or weed control at 250 ppm in [1] and in data set [4] was not below 80% each time. In addition, in data set [2], the pest or weed control at 500 ppm was not below 70%. For the same compound, the chromatographic logP in data set [9] was found to be 3.88; in data set [3] it was 3.24.
In the case of `CC(C)C[S+]([O-])c1cccc(Nc2ncc(Cl)c(NC3CC3)n2)c1` (stereo not drawn) [Example 162], the pest or weed control at 500 ppm in [2] was not below 70%. The chromatographic logP was found to be 2.81 in data set [9] and 2.11 in data set [3]. Further, the pest or weed control at 100 ppm in data set [7] is not below 70%.
As for `CCCC[S+]([O-])c1cccc(Nc2ncc(Cl)c(NC3CCC3)n2)c1` (stereo not drawn) [Example 171], the pest or weed control at 500 ppm in data set [2] was not below 70%. Moreover, the chromatographic logP came out at 3.31 in data set [9] and 2.48 in data set [3]. Besides, the pest or weed control at 100 ppm in [7] and in data set [8] was not below 70% in each case.
Consider `CCC(C)[S+]([O-])c1cccc(Nc2ncc(Cl)c(NC3CC3)n2)c1` (stereo not drawn) [Example 175], for which the pest or weed control at 500 ppm in data set [10], in [2] and in [5] was not below 70% throughout. The chromatographic logP in data set [9] was 2.74; in data set [3] it was 2.12.
For the compound `CCOCCSc1cccc(Nc2ncc(C(F)(F)F)c(NC3CC3)n2)c1` [Example 190], the pest or weed control at 500 ppm in data set [10], in [2] and in data set [5] was not below 70% throughout. Also, the chromatographic logP worked out at 4.05 in data set [9] and 3.87 in [3].
Consider `COCC(O)c1cccc(Nc2ncc(Cl)c(NC3CC3)n2)c1` (stereo not drawn) [Example 194], for which the pest or weed control at 500 ppm in data set [10], in data set [2] and in data set [5] was not below 70% in each case. The same compound returned a chromatographic logP in data set [3] of 1.26.
Regarding `CCOCCCSc1cccc(Nc2ncc(Cl)c(NC3CC3)n2)c1` [Example 204], the pest or weed control at 500 ppm in data set [10] and in data set [2] was not below 70% in each case. The chromatographic logP in [9] was 4.22; in data set [3], 3.02.
With `COCc1cccc(Nc2ncc(Cl)c(NC3CCC3C)n2)c1` (stereo not drawn) [Example 207], the pest or weed control at 250 ppm in data set [1] and in [4] was not below 80% each time. In addition, the pest or weed control at 500 ppm in [2] was not below 70%. Besides, the chromatographic logP in [9] is 4; in data set [3] it was 2.44.
As to `COCCOc1cccc(Nc2ncc(Cl)c(NC3CC3C)n2)c1` (stereo not drawn) [Example 209], the pest or weed control at 500 ppm in [10] and in data set [2] was not below 70% each time.
